Laboratory results reported in article PMC7868389, “Identification and Functional Characterization of Two Putative Pheromone Receptors in the Potato Tuber Moth, Phthorimaea operculella” (Frontiers in Physiology, 2021).

Columns and labels:
Assay type in all cases: cell-based
PopeOR3 [1] = biological target: T1, PopeOR3 (Phthorimaea operculella, UniProt A0A8K1YT60); experiment: two-electrode voltage clamp in Xenopus oocytes, weak current at […]
T1 construct: full-length ORF, co-expressed with PopeOrco in Xenopus oocytes; with PopeOrco
T1 sequence (A0A8K1YT60 1-404): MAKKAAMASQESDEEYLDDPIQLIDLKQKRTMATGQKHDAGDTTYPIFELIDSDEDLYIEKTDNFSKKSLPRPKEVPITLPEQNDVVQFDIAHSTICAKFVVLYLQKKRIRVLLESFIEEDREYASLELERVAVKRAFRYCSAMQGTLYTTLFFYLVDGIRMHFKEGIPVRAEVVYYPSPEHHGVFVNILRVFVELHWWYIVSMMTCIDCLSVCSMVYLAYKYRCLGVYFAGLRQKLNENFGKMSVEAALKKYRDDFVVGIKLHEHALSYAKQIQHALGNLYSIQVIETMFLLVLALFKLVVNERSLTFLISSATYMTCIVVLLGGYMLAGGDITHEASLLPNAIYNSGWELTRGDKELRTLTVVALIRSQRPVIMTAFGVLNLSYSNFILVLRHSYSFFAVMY
T1 sequence (A0A8K1YT59 1-473 partner): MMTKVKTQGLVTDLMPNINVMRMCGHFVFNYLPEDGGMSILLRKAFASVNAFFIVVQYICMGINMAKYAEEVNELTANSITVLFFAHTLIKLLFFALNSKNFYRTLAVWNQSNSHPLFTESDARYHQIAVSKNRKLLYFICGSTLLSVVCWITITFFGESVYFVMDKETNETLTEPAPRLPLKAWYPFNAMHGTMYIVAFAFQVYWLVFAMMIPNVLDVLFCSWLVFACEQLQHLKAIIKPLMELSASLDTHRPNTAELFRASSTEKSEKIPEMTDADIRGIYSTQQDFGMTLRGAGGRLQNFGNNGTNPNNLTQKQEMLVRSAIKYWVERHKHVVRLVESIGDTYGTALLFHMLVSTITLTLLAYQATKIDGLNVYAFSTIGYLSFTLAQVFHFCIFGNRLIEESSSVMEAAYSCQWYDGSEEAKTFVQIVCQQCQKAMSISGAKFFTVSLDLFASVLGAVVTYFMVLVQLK

PopeOR1 = biological target: T2, PopeOR1 (Phthorimaea operculella, UniProt A0A8K1YT58); experiment: two-electrode voltage clamp in Xenopus oocytes
T2 construct: full-length ORF, co-expressed with PopeOrco in Xenopus oocytes; with PopeOrco
T2 sequence (A0A8K1YT58 1-435): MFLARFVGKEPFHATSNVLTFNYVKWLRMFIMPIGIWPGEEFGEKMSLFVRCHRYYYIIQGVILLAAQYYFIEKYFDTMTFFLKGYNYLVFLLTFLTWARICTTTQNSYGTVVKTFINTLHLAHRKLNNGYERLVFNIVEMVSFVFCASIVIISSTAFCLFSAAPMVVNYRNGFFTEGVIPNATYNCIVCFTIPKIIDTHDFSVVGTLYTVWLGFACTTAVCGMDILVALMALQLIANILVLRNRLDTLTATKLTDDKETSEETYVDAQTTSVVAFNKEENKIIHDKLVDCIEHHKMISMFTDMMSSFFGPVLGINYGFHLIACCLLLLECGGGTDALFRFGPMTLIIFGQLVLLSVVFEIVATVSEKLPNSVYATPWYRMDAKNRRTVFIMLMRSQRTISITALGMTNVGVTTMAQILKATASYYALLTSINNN
T2 sequence (A0A8K1YT59 1-473 partner): T1 sequence (A0A8K1YT59 1-473 partner)

PopeOR3 [2] = biological target: T1, PopeOR3; experiment: two-electrode voltage clamp in Xenopus oocytes

SMILES	two-electrode voltage clamp in Xenopus oocytes, weak current at 10^-4 M (PopeOR3 [1]) [nA]	EC50 (PopeOR1) [µM]	EC50 (PopeOR3 [2]) [µM]
CCCCC/C=C\C/C=C/CCCOC(C)=O [(E, Z)-4,7–13: OAc, trans-4, cis-7-tridecadienyl acetate]	29.41 ± 6.87	73	
CC/C=C\C/C=C\C/C=C/CCCOC(C)=O [(E, Z, Z)-4,7,10–13: OAc, tran-4, cis-7, cis-10-tridecatrienyl acetate]		39	89
